Measurements reported in the CheMixHub viscosity set.
± gives the uncertainty stated by the source.

Experiment: xn = mol fraction of the nth substance listed

FCC(F)(F)F + OCCOCCO
viscosity [mPa·s], 101.32 kPa
Settings | x2 = 0.788 | x2 = 0.814 | x2 = 0.816 | x2 = 0.844 | x2 = 0.845 | x2 = 0.892 | x2 = 0.893
293.15 K | 12.4 ± 0.9 | 14.3 ± 1 | – | 16.7 ± 1.1 | – | 21 ± 1.4 | –
313.15 K | – | – | 6.78 ± 0.46 | – | 7.29 ± 0.5 | – | 8.26 ± 0.57

FCC(F)(F)F + OCCOCCOCCO
viscosity [mPa·s], 101.32 kPa
Settings | x2 = 0.732 | x2 = 0.733 | x2 = 0.79 | x2 = 0.791 | x2 = 0.901 | x2 = 0.903
293.15 K | 11.3 ± 0.8 | – | 15.8 ± 1.1 | – | 28.9 ± 2 | –
313.15 K | – | 5.52 ± 0.38 | – | 7.14 ± 0.49 | – | 11.2 ± 0.8

CC(=O)c1ccccc1 + OCc1ccccc1
303.15 K, 101 kPa
Settings | viscosity [mPa·s]
x1 = 0.0742 | 4.331 ± 0.038
x1 = 0.2566 | 3.618 ± 0.032
x1 = 0.3107 | 3.42 ± 0.03
x1 = 0.4505 | 2.937 ± 0.026
x1 = 0.528 | 2.685 ± 0.024
x1 = 0.5727 | 2.544 ± 0.022
x1 = 0.7494 | 2.036 ± 0.018
x1 = 0.8383 | 1.82 ± 0.016
x1 = 0.9234 | 1.638 ± 0.015

C[N+](C)(C)C.[Cl-] + Oc1ccccc1
viscosity [mPa·s], 101 kPa
Settings | 303.15 K | 313.15 K | 323.15 K
x1 = 0.2 | 23.35 ± 0.75 | 16.88 ± 0.54 | 11.9 ± 0.39
x1 = 0.25 | 36.91 ± 1.2 | 23.75 ± 0.78 | 16.31 ± 0.53

O=S(Cl)Cl + [Cl-].[Cl-].[Cl-].[Cl-].[Sn+4]
298.15 K, 101 kPa
Settings | viscosity [mPa·s]
x1 = 0.402 | 0.7259 ± 0.019
x1 = 0.517 | 0.7057 ± 0.018
x1 = 0.803 | 0.6524 ± 0.017

ClC(Cl)C(Cl)(Cl)Cl + c1ccc(Oc2ccccc2)cc1
298.15 K, 101 kPa
Settings | viscosity [mPa·s]
x2 = 0.2642 | 2.64 ± 0.07
x2 = 0.5109 | 2.97 ± 0.08
x2 = 0.7611 | 3.36 ± 0.09

C1COCO1 + c1ccccc1
101.3 kPa
Settings | viscosity [mPa·s]
298.15 K, x2 = 0.0968 | 0.5944 ± 0.0055
298.15 K, x2 = 0.199 | 0.597 ± 0.0055
298.15 K, x2 = 0.3032 | 0.5997 ± 0.0055
298.15 K, x2 = 0.4021 | 0.6022 ± 0.0055
298.15 K, x2 = 0.505 | 0.6045 ± 0.0055
298.15 K, x2 = 0.6016 | 0.6064 ± 0.0055
298.15 K, x2 = 0.704 | 0.6079 ± 0.0055
298.15 K, x2 = 0.7993 | 0.6089 ± 0.0055
298.15 K, x2 = 0.8946 | 0.6094 ± 0.0056
313.15 K, x2 = 0.1006 | 0.5001 ± 0.0048
313.15 K, x2 = 0.1994 | 0.5003 ± 0.0048
313.15 K, x2 = 0.299 | 0.5005 ± 0.0048
313.15 K, x2 = 0.3987 | 0.5005 ± 0.0048
313.15 K, x2 = 0.5003 | 0.5004 ± 0.0048
313.15 K, x2 = 0.5985 | 0.4998 ± 0.0048
313.15 K, x2 = 0.6993 | 0.4988 ± 0.0047
313.15 K, x2 = 0.7998 | 0.4976 ± 0.0047
313.15 K, x2 = 0.8987 | 0.4959 ± 0.0047

CC(=O)c1ccccc1 + c1ccccc1
298.15 K, 101 kPa
Settings | viscosity [mPa·s]
x1 = 0.5 | 0.942 ± 0.013
x1 = 0.75 | 1.27 ± 0.015

CCC(O)CC + c1ccccc1
293.15 K, 101 kPa
Settings | viscosity [mPa·s]
x1 = 0.00635 | 0.6446 ± 0.017
x1 = 0.01101 | 0.6433 ± 0.017
x1 = 0.01253 | 0.643 ± 0.017
x1 = 0.01995 | 0.6415 ± 0.017
x1 = 0.02106 | 0.6411 ± 0.017
x1 = 0.02501 | 0.641 ± 0.017
x1 = 0.02806 | 0.6407 ± 0.017
x1 = 0.03344 | 0.6406 ± 0.017
x1 = 0.03446 | 0.6405 ± 0.017
x1 = 0.03706 | 0.6399 ± 0.017
x1 = 0.04178 | 0.6401 ± 0.017
x1 = 0.04896 | 0.6415 ± 0.017
x1 = 0.05587 | 0.6414 ± 0.017
x1 = 0.06451 | 0.6436 ± 0.017
x1 = 0.08637 | 0.6486 ± 0.017
x1 = 0.1808 | 0.6856 ± 0.018
x1 = 0.2725 | 0.7429 ± 0.02
x1 = 0.3756 | 0.835 ± 0.022
x1 = 0.468 | 0.9578 ± 0.025
x1 = 0.6521 | 1.402 ± 0.037
x1 = 0.7757 | 1.943 ± 0.051
x1 = 0.8899 | 2.92 ± 0.077
